Key:
[1] = test system: Human AML cell line MV-4-11 (FLT3-ITD positive and wild type TP53 gene); assay: Human MV-4-11 AML subcutaneous mouse xenograft model; format: in vivo; conditions: MV-4-11 subcutaneous xenograft, Compound 23 10 mg/kg, Compound C 30 mg/kg
Protocol: The formulation of Compound C was prepared as homogenous suspension in 0.2% HPMC using a mortar. The drug suspension was prepared every three days or once a week and placed at 4° C. when not in use. Before use, the drug suspension was placed at room temperature and shaken to mix well. The formulation of Compound C was administered to mice via p.o. in a volume of 10 mL/kg. […] The drug suspension was prepared once every other day and placed at 4° C. when not in use. Before use, the drug suspension was placed at room temperature and shaken well. […] MV-4-11 cells (Human AML cell line MV-4-11 (FLT3-ITD positive and wild type TP53 gene)) were maintained in IMDM (Cat. C12440500BT, GIBCO), with 10% fetal bovine serum (Cat. 10099-141, GIBCO), 1% L-glutamine, 100 U/mL penicillin G and 100 μg/mL streptomycin (Cat. GNM15140, Hangzhou Geno Biomedical Technology Co., Ltd). Cells were incubated at 37° C. in a humidified incubator with 5% CO2. Six to eight weeks old, female, NOD SCID and BALB/c nude mice were used. Animals were obtained from Vital River Laboratories (VRL, Beijing, China, license number SCXK(J) 2012-0001 and SCXK(J) 2016-0006). The body weights were 17-24 g. Randomization was conducted when the size of xenograft tumors reached 100-150 mm^3. Based on the size of the tumor and body weight, animals were randomly assigned into experimental groups. […] MV-4-11 subcutaneous xenograft models were established by subcutaneously injecting tumor cells (1×10^7 cells (50% Matrigel)/mouse) into the right flank of the mouse under the sterile condition. When the tumors reached an appropriate size (100-200 mm^3), mice were randomized into 6 mice per group and treatment was initiated (day 1) according to Table 4. [table] The tumors sizes and animal body weights were measured twice a week. Tumor volumes were estimated from measurements of two diameters of the individual tumors as follows: Tumor Volume (mm^3)=(a×b^2)/2 Relative tumor volume (RTV) were calculated according to the follows: RTV=Vt/V1 where V1 and Vt were respectively the average tumor volume on the first day of treatment (day 1) and the average tumor volume on a certain time point (day T). Standard NCI procedures were used to calculate tumor parameters (Teicher, B. A. (2011). “Tumor Models in Cancer Research.” Second Edition, Human Press). Percent tumor growth inhibition (% T/C) was calculated as the mean RTV of treated tumors (T) divided by the mean RTV of control tumors (C)×100%. […] A body weight loss (mean of group) of greater than 20%, or greater than 20% of drug deaths are considered to indicate an excessively toxic dosage. The synergistic analysis was performed using the following formula described in Clarke R. Issues in experimental design and endpoint analysis in the study of experimental cytotoxic agents in vivo in breast cancer and other models[J]. Breast Cancer Research & Treatment, 1997, 46(2-3):255-278, which is incorporated by reference in its entirety: expected value=(A/C)×(B/C); actual value=(AB)/C; A: RTV of drug A; B: RTV of drug B; C=RTV of the vehicle control group; AB=RTV of the combination group. Ratio=expected/actual value. […] A ratio=1 indicates the two drugs have additive effects. A ratio <1 indicates the two drugs may have antagonist effects. According to the earlier publication (Gao, H., et al. (2015). “High-throughput screening using patient-derived tumor xenografts to predict clinical trial drug response” Nat Med 21: 1318), additional measurements of response included stable disease (SD), partial tumor regression (PR), and complete regression (CR) were determined by comparing tumor volume change at day t to its baseline: tumor volume change (%)=(Vt−V1)/V1. […] For each time t, the average of tumor volume change from t=1 to t was also calculated. […]

[2] = test system: Human AML cell line MOLM-13 (FLT3-ITD positive and wild type TP53 gene); assay: Human MOLM-13 AML systemic mouse xenograft model, survival; format: in vivo; conditions: MOLM-13 systemic model, Compound 23 10 mg/kg, Compound C 20 mg/kg, p.o. q2d × 21 d
Protocol: The formulation of Compound C was prepared as homogenous suspension in 0.2% HPMC using a mortar. The drug suspension was prepared every three days or once a week and placed at 4° C. when not in use. Before use, the drug suspension was placed at room temperature and shaken to mix well. The formulation of Compound C was administered to mice via p.o. in a volume of 10 mL/kg.
The formulation of Compound 23 was prepared in 0.2% HPMC in a mortar to generate homogenous suspension. The drug suspension was prepared once every other day and placed at 4° C. when not in use. Before use, the drug suspension was placed at room temperature and shaken well. The formulation of Compound 23 was administered to mice via p.o. in a volume of 10 mL/kg.
MOLM-13 cell lines (Human AML cell line MOLM-13 (FLT3-ITD positive and wild type TP53 gene)) were maintained in RPMI-1640 (Cat. C11875500BT, GIBCO) with 10% fetal bovine serum (Cat. 10099-141, GIBCO), 1% L-glutamine, 100 U/mL penicillin G and 100 μg/mL streptomycin (Cat. GNM15140, Hangzhou Geno Biomedical Technology Co., Ltd). Cells were incubated at 37° C. in a humidified incubator with 5% CO2.
Six to eight weeks old, female, NOD SCID and BALB/c nude mice were used. Animals were obtained from Vital River Laboratories (VRL, Beijing, China, license number SCXK(J) 2012-0001 and SCXK(J) 2016-0006). The body weights were 17-24 g.
MOLM-13 systemic tumor model were established by injecting tumor cells into the tail vein (10×10^6 cells/mouse) under the sterile condition. To establish the MOLM-13 systemic model, all animals were intraperitoneally injected (i.p.) with cyclophosphamide (150 mg/kg) for two consecutive days before the inoculation of MOLM-13 cells. On the third day after cell inoculation, animals were randomized into 10 mice per group and treatment was initiated (day 1) according to Table 2.
The animals were euthanized when the experimental animals had symptoms such as weight loss and weight loss greater than 20%, limb paralysis, tumor metastasis to the eye causing ocular protrusion, tumor metastasis to the abdominal cavity causing abdominal enlargement. These severe health issues were considered as the same as animal death caused by tumor growth and the affected animals were sacrificed immediately.
The date of the last mouse died (the last measurement) was used for analysis of median overall survival and the generation of Kaplan-Meier plots. Survival curves of different treatment groups were compared using log-rank test with Bonferroni's multiple test. All data were analyzed in SPSS version 18.0 (IBM, Armonk, NY, U.S.A.). Prism version 6 (GraphPad Software Inc., San Diego, CA, U.S.A.) was used for graphic presentation.

CCN1[C@@H](C(=O)NC23CCC(C(=O)O)(CC2)CC3)[C@H](c2cccc(Cl)c2F)[C@]2(C(=O)Nc3cc(Cl)ccc32)C12CCCCC2 [Compound C]
Tumor weight on D 22 (Mean ± SEM) ([1]; day 22, p.o. q2d × 22 d, vehicle 2.29 ± 0.29, in g (unit assumed)): 1.45 ± 0.32 | T/C(%)@D 22 ([1]; mean RTV treated/control, day 22, p.o. q2d): 59.6% | RTV@D 22 ([1]; relative tumor volume day 22, p.o. q2d, vehicle 18.2 ± 3.3): 10.8 ± 1.6 | Median survival time of mice ([2]; vehicle 19 days): 25.5 days | Prolonged survival time of mice ([2]; versus vehicle): 6.5 days

Reference: US12233047B2, “Pharmaceutical combination and use thereof” (ASCENTAGE PHARMA (SUZHOU) CO., LTD., priority 2019, dated 2025)
